# Where a name gives a salt, the structure may show the parent alone. Read-outs that look alike come from different tables or passages of the source.
# How the values were obtained:
# [1] = test system: CCL17 secretion in peripheral human whole blood; assay: Human Whole Blood (HWB) CCL17 TR-FRET Assay (IL-13 stimulated CCL17 secretion); format: cell-based
# Procedure, shortened: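 Heparinized human whole blood was preincubated with compound (11-point, 3-fold series) for 2 h at 37°C, then stimulated with IL-13 (10 ng/mL final) for 48 h. Serum CCL17 was measured by TR-FRET sandwich immunoassay (665/615 nm ratio) after 16 h at room temperature, giving IC50.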
# [2] = molecular target: T1, STAT6 (Homo sapiens, UniProt P42226); assay: STAT6 Reporter Luciferase Assay (IL-13 stimulated HaCaT keratinocyte NanoLuc reporter cells); format: cell-based; conditions: read-out: Reporter EC50
# T1 construct: stably transfected HaCaT keratinocyte cell line, which expresses NanoLuc luciferase reporter gene under the transcriptional control of the STAT6 responsive promoter; endogenous in cells; host or cells: HaCaT keratinocyte reporter cell line (stably transfected with a NanoLuc reporter)
# T1 sequence (P42226 1-847): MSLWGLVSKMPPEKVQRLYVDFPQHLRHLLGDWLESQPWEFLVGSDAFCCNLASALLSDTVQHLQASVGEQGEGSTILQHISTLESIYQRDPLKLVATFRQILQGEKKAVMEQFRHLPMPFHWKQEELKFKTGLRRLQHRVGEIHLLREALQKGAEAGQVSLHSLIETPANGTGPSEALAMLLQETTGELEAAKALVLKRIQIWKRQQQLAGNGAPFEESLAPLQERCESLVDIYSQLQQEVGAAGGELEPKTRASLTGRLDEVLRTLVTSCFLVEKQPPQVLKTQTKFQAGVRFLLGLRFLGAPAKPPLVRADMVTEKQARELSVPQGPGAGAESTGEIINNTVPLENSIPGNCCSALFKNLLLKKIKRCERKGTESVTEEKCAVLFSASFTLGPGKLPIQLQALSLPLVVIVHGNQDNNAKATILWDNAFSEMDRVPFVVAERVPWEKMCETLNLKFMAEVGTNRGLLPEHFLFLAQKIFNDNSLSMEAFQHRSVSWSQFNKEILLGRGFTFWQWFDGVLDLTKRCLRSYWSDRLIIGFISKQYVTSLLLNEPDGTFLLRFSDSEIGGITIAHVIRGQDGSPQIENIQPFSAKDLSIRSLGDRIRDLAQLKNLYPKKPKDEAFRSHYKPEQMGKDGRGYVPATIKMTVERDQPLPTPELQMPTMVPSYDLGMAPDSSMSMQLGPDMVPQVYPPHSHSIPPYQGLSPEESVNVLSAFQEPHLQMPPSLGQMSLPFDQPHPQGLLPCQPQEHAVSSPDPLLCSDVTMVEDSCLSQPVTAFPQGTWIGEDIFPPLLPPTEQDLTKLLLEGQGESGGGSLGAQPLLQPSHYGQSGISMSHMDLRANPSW
# Procedure, shortened: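 HaCaT IL-13Ra2-promoter NanoLuc reporter; cpd 2 h 37 °C in DMEM/2% HI FBS; IL-13 0.12 nM final, 4 h; Nano-Glo luminescence.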
# [3] = Homo sapiens, 48 h, human whole blood, 10 ng/mL IL13, 48 hours
# [4] = IL-13 stimulated HaCaT STAT6 NanoLuc reporter cells
# [5] = Homo sapiens, 48 h, inhibition of CCL17 secretion in human whole blood, 10 ng/mL IL13, 48 hours
# [6] = STAT6 NanoLuc luciferase reporter, IL-13 stimulated HaCaT keratinocyte cells
"EC50 [2, 4] [nM]","IC50 [1, 5] [nM]","EC50 [2, 6] [nM]",Structure (SMILES),also measured
12,–,–,"C[C@@H]1CN(c2ccc(C(=O)N(C)C)cn2)Cc2c(C(=O)NCc3ccc(NC(=O)N(C)C)cc3)nn(C3(C)CC3)c21 (single isomer, unassigned) [Example 551]","IC50 [1, 3]: 104 nM"
58,–,–,"C[C@@H]1CN(c2ccc(C(=O)N(C)C)cn2)Cc2c(C(=O)NCc3ccc(NC(=O)N(C)C)cc3)nn(C3CCOCC3)c21 (single isomer, unassigned) [Example 556]","IC50 [1, 3]: 196 nM"
15,–,–,"C[C@@H]1CN(c2ccc(C(=O)N(C)C)cn2)Cc2c(C(=O)NCc3ccc(NC(=O)N(C)C)cc3)nn(C3CCC3)c21 (single isomer, unassigned) [Example 557]","IC50 [1, 3]: 204 nM"
–,69,8,"CC(C)n1nc(C(=O)NCc2ccc(NC(=O)N(C)C)cc2)c2c1CCN(c1ccc(C(=O)N(C)C)cn1)C2 [Example 2, 5-(5-(Dimethylcarbamoyl)pyridin-2-yl)-N-(4-(3,3-dimethylureido)benzyl)-1-isopropyl-4,5,6,7-tetrahydro-1H-pyrazolo[4,3-c]pyridine-3-carboxamide]",–
–,104,10,"CCn1nc(C(=O)NCc2ccc(NC(=O)N(C)C)cc2)c2c1CCN(c1ccc(C(=O)N(C)C)cn1)C2 [Example 3, 5-(5-(Dimethylcarbamoyl)pyridin-2-yl)-N-(4-(3,3-dimethylureido)benzyl)-1-ethyl-4,5,6,7-tetrahydro-1H-pyrazolo[4,3-c]pyridine-3-carboxamide]",–
–,94,11,"CN(C)C(=O)Nc1ccc(CNC(=O)c2nn(C3CC3)c3c2CN(c2ccc(C(=O)N(C)C)cn2)CC3)cc1 [Example 10, 1-Cyclopropyl-5-(5-(dimethylcarbamoyl)pyridin-2-yl)-N-(4-(3,3-dimethylureido)benzyl)-4,5,6,7-tetrahydro-1H-pyrazolo[4,3-c]pyridine-3-carboxamide trifluoroacetate]",–
–,83,17,"CN(C)C(=O)Nc1ccc(CNC(=O)c2nc(C3CC3)n3c2CN(c2ccc(C(=O)N(C)C)cn2)CC3)cc1 [Example 13, 3-cyclopropyl-7-(5-(dimethylcarbamoyl)pyridin-2-yl)-N-(4-(3,3-dimethylureido)benzyl)-5,6,7,8-tetrahydroimidazo[1,5-a]pyrazine-1-carboxamide]",–
–,260,29,"CN(C)C(=O)Nc1ccc(CNC(=O)c2nn(C)c3c2CN(c2ccc(C(=O)N(C)C)cn2)CC3)cc1 [Example 14, 5-(5-(dimethylcarbamoyl)pyridin-2-yl)-N-(4-(3,3-dimethylureido)benzyl)-1-methyl-4,5,6,7-tetrahydro-1H-pyrazolo[4,3-c]pyridine-3-carboxamide]",–
–,1160,159,"CNC(=O)c1ccc(CNC(=O)c2nn(C)c3c2CN(c2ccc(C(=O)N(C)C)cn2)CC3)cc1 [Example 15, 5-(5-(dimethylcarbamoyl)pyridin-2-yl)-1-methyl-N-(4-(methylcarbamoyl)benzyl)-4,5,6,7-tetrahydro-1H-pyrazolo[4,3-c]pyridine-3-carboxamide]",–
–,291,322,"CN(C)C(=O)Nc1ccc(CNC(=O)c2ncn3c2CN(c2ccc(C(=O)N(C)C)cn2)CC3)cc1 [Example 17, 7-(5-(dimethylcarbamoyl)pyridin-2-yl)-N-(4-(3,3-dimethylureido)benzyl)-5,6,7,8-tetrahydroimidazo[1,5-a]pyrazine-1-carboxamide]",–
–,1380,1420,"CN(C)C(=O)Nc1ccc(CNC(=O)c2n[nH]c3c2CN(c2ccc(C(=O)N(C)C)cn2)CC3)cc1 [Example 18, 5-(5-(Dimethylcarbamoyl)pyridin-2-yl)-N-(4-(3,3-dimethylureido)benzyl)-4,5,6,7-tetrahydro-1H-pyrazolo[4,3-c]pyridine-3-carboxamide]",–

# The next lines start with the molecule.
Structure (SMILES),"EC50 [2, 4] [nM]","IC50 [1, 5] [nM]","EC50 [2, 6] [nM]",also measured
"CC(C)n1nc(C(=O)NCc2ccc(NC(=O)N(C)C)cc2)c2c1[C@H](C)CN(c1ncc(C(=O)N(C)C)cn1)C2 (single isomer, unassigned) [Example 552]",34,–,–,"IC50 [1, 3]: 87 nM"
"CNC1(C)CCN(C(=O)Nc2ccc(CNC(=O)c3nn(C(C)C)c4c3CN(c3ccc(C(=O)N(C)C)cc3)C[C@@H]4C)cc2)C1 (single isomer, unassigned) [Example 713, (S)-5-(4-(dimethylcarbamoyl)phenyl)-1-isopropyl-7-methyl-N-(4-((R*)-3-methyl-3-(methylamino)pyrrolidine-1-carboxamido)benzyl)-4,5,6,7-tetrahydro-1H-pyrazolo[4,3-c]pyridine-3-carboxamide]",3,–,–,"IC50 ([1]; Homo sapiens, 48 h, human whole blood, IL-13 10 ng/mL): 22 nM"
"CNC1(C)CCN(C(=O)Nc2ccc(CNC(=O)c3nn(C(C)C)c4c3CN(c3ccc(C(=O)N(C)C)cc3)C[C@@H]4C)cc2)C1 (single isomer, unassigned) [Example 714, (S)-5-(4-(dimethylcarbamoyl)phenyl)-1-isopropyl-7-methyl-N-(4-((R*)-3-methyl-3-(methylamino)pyrrolidine-1-carboxamido)benzyl)-4,5,6,7-tetrahydro-1H-pyrazolo[4,3-c]pyridine-3-carboxamide]",4,–,–,"IC50 ([1]; human whole blood, IL-13 10 ng/mL, 48 hours): 28 nM"
"CC(C)n1nc(C(=O)NCc2ccc(NC(=O)N(C)C)cc2)c2c1CCN(c1ccc(N3CCCC3=O)cn1)C2 [Example 1, N-(4-(3,3-dimethylureido)benzyl)-1-isopropyl-5-(5-(2-oxopyrrolidin-1-yl)pyridin-2-yl)-4,5,6,7-tetrahydro-1H-pyrazolo[4,3-c]pyridine-3-carboxamide]",–,318,11,–
"CNC(=O)c1ccc(CNC(=O)c2nn(C)c3c2CN(c2ccc(C(=O)N(C)C)cc2)CC3)cc1 [Example 4, 5-(4-(Dimethylcarbamoyl)phenyl)-1-methyl-N-(4-(methylcarbamoyl)benzyl)-4,5,6,7-tetrahydro-1H-pyrazolo[4,3-c]pyridine-3-carboxamide]",–,1110,178,–
"Cc1nc(C(=O)NCc2ccc(NC(=O)N(C)C)cc2)c2n1CCN(c1ccc(C(=O)N(C)C)cn1)C2 [Example 5, 7-(5-(Dimethylcarbamoyl)pyridin-2-yl)-N-(4-(3,3-dimethylureido)benzyl)-3-methyl-5,6,7,8-tetrahydroimidazo[1,5-a]pyrazine-1-carboxamide]",–,–,124,"IC50 ([1]; inhibition of CCL17 secretion in human whole blood, 10 ng/mL IL13, 48 hours): 927 nM"
"CC(C)n1nc(C(=O)NCc2ccc(-c3ncc[nH]3)cc2)c2c1CCN(c1ccc(C(=O)N(C)C)cn1)C2 [Example 11, N-(4-(1H-imidazol-2-yl)benzyl)-5-(5-(dimethylcarbamoyl)pyridin-2-yl)-1-isopropyl-4,5,6,7-tetrahydro-1H-pyrazolo[4,3-c]pyridine-3-carboxamide]",–,205,16,–
"CN(C)C(=O)Nc1ccc(CNC(=O)c2nn(C)c3c2CN(c2ccc(-c4nccn4C)cn2)CC3)cc1 [Example 12, N-(4-(3,3-Dimethylureido)benzyl)-1-methyl-5-(5-(1-methyl-1H-imidazol-2-yl)pyridin-2-yl)-4,5,6,7-tetrahydro-1H-pyrazolo[4,3-c]pyridine-3-carboxamide]",–,93,16,–
"CNC(=O)c1ccc(CNC(=O)c2nc(C3CC3)n3c2CN(c2ccc(C(=O)N(C)C)cn2)CC3)cc1 [Example 16, 3-cyclopropyl-7-(5-(dimethylcarbamoyl)pyridin-2-yl)-N-(4-(methylcarbamoyl)benzyl)-5,6,7,8-tetrahydroimidazo[1,5-a]pyrazine-1-carboxamide]",–,791,261,–
